In ChEMBL document CHEMBL4368904 (J Med Chem, 2019) one finds Ki and inhibition data, which are given here for five molecules.

Structures are written as SMILES.

Assay [1] concerns the target Sigma intracellular receptor 2 (Homo sapiens, UniProt Q5BJF2). Kind of assay: Inhibition of sigma receptor 2 (unknown origin).
A further assay has as its target Histamine H1 receptor (Homo sapiens, UniProt P35367). Kind of assay: Inhibition of histamine H1 receptor (unknown origin).
Assay [2] concerns the target T1, 5-hydroxytryptamine receptor 2C (Homo sapiens, UniProt P28335).
T1 sequence (P28335 whole entry): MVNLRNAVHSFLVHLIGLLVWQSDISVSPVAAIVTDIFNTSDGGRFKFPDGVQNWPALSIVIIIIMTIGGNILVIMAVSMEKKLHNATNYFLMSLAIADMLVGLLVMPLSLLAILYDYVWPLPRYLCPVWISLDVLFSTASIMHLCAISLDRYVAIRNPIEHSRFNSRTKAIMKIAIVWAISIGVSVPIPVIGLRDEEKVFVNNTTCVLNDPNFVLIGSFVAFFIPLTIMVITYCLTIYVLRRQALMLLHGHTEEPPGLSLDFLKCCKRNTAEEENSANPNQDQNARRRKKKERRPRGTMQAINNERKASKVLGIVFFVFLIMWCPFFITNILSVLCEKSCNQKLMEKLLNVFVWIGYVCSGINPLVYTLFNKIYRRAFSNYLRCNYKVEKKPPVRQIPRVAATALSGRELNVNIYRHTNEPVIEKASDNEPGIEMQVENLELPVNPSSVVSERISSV
Kind of assay: Inhibition of 5HT2C (unknown origin).

Assay [3] addresses T2, Adenosine receptor A2a (Homo sapiens, UniProt P29274). Kind of assay: Displacement of [3H]2-[p-(2-carboxyethyl)phenylethylamino]-5-N-ethylcarboxamidoadenosine from human A2A adenosine receptor expressed in HEK293 cell membranes after 60 mins by scintillation proximity assay.
Assay [4] deals with T3, Adenosine receptor A3 (Homo sapiens, UniProt P0DMS8).
T3 sequence (P0DMS8 whole entry): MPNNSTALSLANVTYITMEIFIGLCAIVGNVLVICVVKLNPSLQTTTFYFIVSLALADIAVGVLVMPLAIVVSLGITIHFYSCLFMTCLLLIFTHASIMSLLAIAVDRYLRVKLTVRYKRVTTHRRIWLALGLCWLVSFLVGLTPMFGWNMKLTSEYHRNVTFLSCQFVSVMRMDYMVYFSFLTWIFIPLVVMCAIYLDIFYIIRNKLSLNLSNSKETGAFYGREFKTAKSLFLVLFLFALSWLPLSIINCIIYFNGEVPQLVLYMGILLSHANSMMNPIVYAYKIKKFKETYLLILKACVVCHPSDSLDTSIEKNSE
Kind of assay: Displacement of [125I]N6-(4-amino-3-iodobenzyl)adenosine-5-N-methyluronamide from human A3A adenosine receptor expressed in CHO cell membranes after 60 mins by scintillation proximity assay. (In general: In a radioligand displacement assay an active substance lowers the binding of a labelled ligand.)

For assay [5], the target named is T4, Adenosine receptor A3 (Mus musculus, UniProt Q61618).
T4 sequence (Q61618 whole entry): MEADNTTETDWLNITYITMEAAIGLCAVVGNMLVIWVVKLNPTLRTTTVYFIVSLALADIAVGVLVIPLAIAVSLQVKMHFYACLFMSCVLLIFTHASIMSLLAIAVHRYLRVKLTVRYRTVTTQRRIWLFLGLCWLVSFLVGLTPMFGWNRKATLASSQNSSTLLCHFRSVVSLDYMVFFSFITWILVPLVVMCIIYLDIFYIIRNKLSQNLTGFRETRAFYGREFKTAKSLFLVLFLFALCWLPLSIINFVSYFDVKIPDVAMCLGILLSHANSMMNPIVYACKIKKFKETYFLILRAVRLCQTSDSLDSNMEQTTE
Kind of assay: Displacement of [125I]N6-(4-amino-3-iodobenzyl)adenosine-5-N-methyluronamide from mouse A3A adenosine receptor expressed in CHO cell membranes after 60 mins by scintillation proximity assay.

Assay [6] concerns the target Sigma non-opioid intracellular receptor 1 (Homo sapiens, UniProt Q99720). The assay can be described thus: Inhibition of sigma receptor 1 (unknown origin).
The target of assay [7] is 5-hydroxytryptamine receptor 7 (Homo sapiens, UniProt P34969). The assay can be described thus: Inhibition of 5HT7R (unknown origin).
Assay [8] has as its target T5, Adenosine receptor A1 (Homo sapiens) (UniProt P30542).
T5 sequence (whole entry): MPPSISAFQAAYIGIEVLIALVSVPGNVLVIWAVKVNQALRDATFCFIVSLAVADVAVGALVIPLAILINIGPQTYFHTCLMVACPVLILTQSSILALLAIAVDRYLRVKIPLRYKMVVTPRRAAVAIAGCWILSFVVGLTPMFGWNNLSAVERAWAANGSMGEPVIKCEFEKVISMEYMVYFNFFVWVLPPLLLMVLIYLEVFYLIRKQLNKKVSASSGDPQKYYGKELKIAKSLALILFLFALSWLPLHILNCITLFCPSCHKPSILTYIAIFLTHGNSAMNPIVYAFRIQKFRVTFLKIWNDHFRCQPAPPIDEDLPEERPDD
The assay can be described thus: Displacement of [3H]N6-R-phenylisopropyladenosine from human A1A adenosine receptor expressed in CHO cell membranes at 10 uM after 60 mins by scintillation proximity assay relative to adenosine 5-N-ethyluronamide.

Assay [9] addresses T2, Adenosine receptor A2a. The assay can be described thus: Displacement of [3H]2-[p-(2-carboxyethyl)phenylethylamino]-5-N-ethylcarboxamidoadenosine from human A2A adenosine receptor expressed in HEK293 cell membranes at 10 uM after 60 mins by scintillation proximity assay relative to adenosine 5-N-ethyluronamide.
Assay [10] addresses T6, Adenosine receptor A3 (Homo sapiens) (UniProt P0DMS8).
T6 sequence (whole entry): T3 sequence (P0DMS8 whole entry)
Kind of assay: Displacement of [125I]N6-(4-amino-3-iodobenzyl)adenosine-5-N-methyluronamide from human A3A adenosine receptor expressed in CHO cell membranes at 10 uM after 60 mins by scintillation proximity assay relative to adenosine 5-N-ethyluronamide.

Assay [11] concerns the target 5-hydroxytryptamine receptor 5A (Homo sapiens, UniProt P47898). The assay can be described thus: Inhibition of 5HT5A (unknown origin).
A further assay concerns the target Histamine H2 receptor (Homo sapiens, UniProt P25021). Kind of assay: Inhibition of histamine H2 receptor (unknown origin).
The next assay addresses T7, Adenosine receptor A1 (Homo sapiens, UniProt P30542).
T7 sequence (P30542 whole entry): T5 sequence (whole entry)
The assay can be described thus: Displacement of [3H]N6-R-phenylisopropyladenosine from human A1A adenosine receptor expressed in CHO cell membranes after 60 mins by scintillation proximity assay.

Sigma intracellular receptor 2, sequence (Q5BJF2 whole entry): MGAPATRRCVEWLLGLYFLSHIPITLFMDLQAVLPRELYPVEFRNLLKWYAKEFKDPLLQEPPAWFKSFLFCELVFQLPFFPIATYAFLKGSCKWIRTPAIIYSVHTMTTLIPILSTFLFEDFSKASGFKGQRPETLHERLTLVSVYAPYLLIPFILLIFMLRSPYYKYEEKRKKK
T2 sequence (P29274 whole entry): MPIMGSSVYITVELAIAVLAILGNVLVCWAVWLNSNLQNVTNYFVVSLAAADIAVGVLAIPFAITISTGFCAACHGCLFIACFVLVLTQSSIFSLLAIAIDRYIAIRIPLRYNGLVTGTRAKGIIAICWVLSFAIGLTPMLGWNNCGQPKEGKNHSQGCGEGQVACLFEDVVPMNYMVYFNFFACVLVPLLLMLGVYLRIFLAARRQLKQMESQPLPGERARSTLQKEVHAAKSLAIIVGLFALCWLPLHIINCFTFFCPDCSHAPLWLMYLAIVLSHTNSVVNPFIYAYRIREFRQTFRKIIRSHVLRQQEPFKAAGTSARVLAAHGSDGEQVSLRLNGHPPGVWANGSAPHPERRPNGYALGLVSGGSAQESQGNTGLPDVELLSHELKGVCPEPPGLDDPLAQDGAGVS
Sigma non-opioid intracellular receptor 1, sequence (Q99720 whole entry): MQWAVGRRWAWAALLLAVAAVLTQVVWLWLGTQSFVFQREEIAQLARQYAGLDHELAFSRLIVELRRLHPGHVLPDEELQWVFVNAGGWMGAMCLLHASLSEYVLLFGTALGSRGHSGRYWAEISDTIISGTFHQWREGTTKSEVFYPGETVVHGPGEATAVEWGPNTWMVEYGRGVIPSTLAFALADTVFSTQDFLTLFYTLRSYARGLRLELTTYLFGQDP
Histamine H1 receptor, sequence (P35367 whole entry): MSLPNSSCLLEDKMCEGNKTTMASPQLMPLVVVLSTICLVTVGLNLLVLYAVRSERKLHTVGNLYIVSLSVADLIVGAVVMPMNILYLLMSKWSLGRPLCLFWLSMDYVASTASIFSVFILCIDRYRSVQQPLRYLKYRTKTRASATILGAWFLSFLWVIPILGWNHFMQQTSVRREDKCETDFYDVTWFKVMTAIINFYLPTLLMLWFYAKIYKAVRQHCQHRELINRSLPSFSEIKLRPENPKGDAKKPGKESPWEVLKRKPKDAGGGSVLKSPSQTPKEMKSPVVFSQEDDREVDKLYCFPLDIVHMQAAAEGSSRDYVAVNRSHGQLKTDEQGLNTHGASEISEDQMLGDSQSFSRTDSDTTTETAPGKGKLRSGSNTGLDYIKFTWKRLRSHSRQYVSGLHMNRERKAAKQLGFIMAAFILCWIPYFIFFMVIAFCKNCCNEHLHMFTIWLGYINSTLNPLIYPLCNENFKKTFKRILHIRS
Histamine H2 receptor, sequence (P25021 whole entry): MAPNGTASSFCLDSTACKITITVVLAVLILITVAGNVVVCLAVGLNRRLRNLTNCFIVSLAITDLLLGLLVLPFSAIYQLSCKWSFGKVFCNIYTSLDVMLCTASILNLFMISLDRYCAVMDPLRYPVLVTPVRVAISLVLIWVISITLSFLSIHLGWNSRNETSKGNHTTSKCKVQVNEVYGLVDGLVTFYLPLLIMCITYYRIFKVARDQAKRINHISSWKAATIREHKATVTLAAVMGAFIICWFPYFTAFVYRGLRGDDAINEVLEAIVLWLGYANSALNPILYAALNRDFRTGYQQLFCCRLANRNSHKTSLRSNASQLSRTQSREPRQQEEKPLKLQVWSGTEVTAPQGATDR
5-hydroxytryptamine receptor 5A, sequence (P47898 whole entry): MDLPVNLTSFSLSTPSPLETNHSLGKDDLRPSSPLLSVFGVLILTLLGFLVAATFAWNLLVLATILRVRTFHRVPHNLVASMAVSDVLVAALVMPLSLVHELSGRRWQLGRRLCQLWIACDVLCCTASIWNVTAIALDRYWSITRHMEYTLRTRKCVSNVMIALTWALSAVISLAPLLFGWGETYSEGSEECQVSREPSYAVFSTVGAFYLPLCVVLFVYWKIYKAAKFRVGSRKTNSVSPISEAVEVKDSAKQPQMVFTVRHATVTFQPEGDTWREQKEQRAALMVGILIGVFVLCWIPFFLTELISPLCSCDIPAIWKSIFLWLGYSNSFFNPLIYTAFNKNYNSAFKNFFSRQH
5-hydroxytryptamine receptor 7, sequence (P34969 whole entry): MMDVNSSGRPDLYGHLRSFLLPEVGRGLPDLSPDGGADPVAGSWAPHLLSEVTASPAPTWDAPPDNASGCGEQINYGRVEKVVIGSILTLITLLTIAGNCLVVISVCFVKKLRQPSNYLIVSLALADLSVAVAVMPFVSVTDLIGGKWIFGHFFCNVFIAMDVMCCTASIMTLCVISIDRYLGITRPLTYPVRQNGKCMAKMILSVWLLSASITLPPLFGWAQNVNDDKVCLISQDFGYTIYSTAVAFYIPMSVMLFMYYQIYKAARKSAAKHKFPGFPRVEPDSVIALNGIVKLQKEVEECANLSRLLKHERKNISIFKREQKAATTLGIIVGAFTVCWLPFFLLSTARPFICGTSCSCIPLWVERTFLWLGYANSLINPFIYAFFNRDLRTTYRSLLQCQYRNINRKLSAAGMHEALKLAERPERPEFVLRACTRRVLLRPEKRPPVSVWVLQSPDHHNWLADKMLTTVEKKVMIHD

A word on the Ki: it is the dissociation constant of the complex between target and ligand, obtained from inhibition or displacement. High values mean weaker binding, low ones tighter binding. Regarding `Nc1ncnc2c1ncn2[C@@H]1O[C@H](C(=O)NC2CC2)[C@@H](O)[C@H]1O`, the Ki in assay [1] was determined as 4350 nM; on Histamine H1 receptor, 7880 nM.
With `CCOC(=O)[C@@]12C[C@@H]1[C@@H](n1cnc3c(NC(C4CC4)C4CC4)nc(Cl)nc31)[C@H](O)[C@@H]2O`, the Ki in [2] amounted to 54 nM.
On to `O[C@@H]1[C@H](O)[C@@H](CCl)O[C@H]1n1cnc2c(N[C@H]3C[C@H]4CC[C@@H]3C4)ncnc21`, for which the Ki on Adenosine receptor A2a [3] was determined as 2050 nM; at Adenosine receptor A3 [4] it was 355 nM; at Adenosine receptor A3 [5] it was 1560 nM; in assay [1] it was 432 nM; in assay [6], 484 nM; in assay [7], 1240 nM.
The term inhibition denotes the share of the control response that was lost under treatment. Take `CCOC(=O)[C@@]12C[C@@H]1[C@@H](n1cnc3c(NC(C4CC4)C4CC4)nc(Cl)nc31)[C@@H]1OC(C)(C)O[C@@H]12`: the inhibition in assay [8] was 49%; on Adenosine receptor A2a [9], 15%; in assay [10], 41%. Further, the figures for the Ki (in [11]; on Histamine H2 receptor) were 8690 nM and 6380 nM, respectively.
Consider `Nc1nc(Cl)nc2c1ncn2[C@H]1[C@H](O)[C@H](O)[C@]2(CCl)C[C@H]12`, for which the Ki amounted to 7.61 nM on Adenosine receptor A1; 1750 nM on Adenosine receptor A2a [3]; 253 nM on Adenosine receptor A3 [4]; 2550 nM in assay [1]; 1970 nM in [6].
